Laboratory results taken from patent US10028929B2, “Method of treating raynaud's disease secondary to connectivitis using aminaphtone” (LABORATORI BALDACCI S.P.A., priority 2006, dated 2018).

What was measured:
Type in all cases: cell-based, human
[1] = system: E-selectine adhesive molecule CD62 (ELAM-1); assay: Cytofluorometric quantitative analysis of E-selectine (ELAM-1) expression in ECV 304 cells; conditions: 48 hr
Experimental: (§1) Cell lines ECV 304: they are cells coming from umbilical cord of a new-born and spontaneously immortalized at the 136th step (distributed from Collection of Cell Cultures). Such cells were cultured in a complete medium consisted of: Medium 199, L-glutamine 1%, penicillin/streptomycin 10 (Invitrogen) with an addition of 10% FCS (fetal calf serum) (Hy-clone).
Cytofluorometric quantitative analysis of aminaphtone effects on the E-selectine adhesive molecule expression CD62 (ELAM-1).
Cells of the ECV304 line, cultured in 28 cm^2 Petri dishes, were stimulated with IL-1β at 100 U/ml (Roche) over 48 hrs in a complete medium and complete medium additioned with aminaphtone at the concentration of 2; 4; 5 μg/ml, respectively. Such concentrations are equivalent to concentrations reached “in vivo” through administration of Capillarema per os at the standard dosage of 3 capsules/day (capsules with 75 mg of active substance per day). Furthermore, cells untreated with IL-1β were incubated in a complete medium additioned with aminaphtone alone at the concentration of 4 μg/ml.
Samples, after washing with PBS, were removed from the culture plates through a treatment with trypsin-EDTA. Adhesive molecules expression was detected through incubation over 20 min. with 7 μl/10^6 of human monoclonal antibody CD62-E-PECy5 (ELAM-1) (Becton-Dickinson). The binding specificity was ensured by the addition of the control […]. After washing and re-suspension in the fixing solution (1% paraformaldehyde, PFA in PBS), samples were analyzed in a flow cytometry with FACSdiva Software (Becton-Dickinson). Data were expressed as mean channel fluorescence and as fluorescence percentage of positive cells. All experiments were repeated 5 times on independent cell samples coming from different experimental sessions. Evaluation of endothelin production (ET-1).

[2] = system: endothelin-1 (ET-1); assay: Endothelin-1 production from ECV 304 cells, EIA-kit on supernatants; conditions: aminaphtone 2, 4, 6 mcg/ml, dose-dependent
Experimental: as §1
a) EIA-kit—Supernatants of cell samples ECV304 were collected, cultured as above, treated with IL-1β at 100 U/ml over 6-12-24 and 36 hrs or with IL-1β at 100 U/ml additioned with aminaphtone at the concentration of 2; 4; 6 μg/ml, respectively. Moreover, samples non-stimulated with IL-1β were incubated with the addition of aminaphtone alone at 2; 4; 6 μg/ml.
The concentration of ET-1 existing in the supernatants was quantified through Endothelin-1 EIA-Kit (CAYMAN Chemical) in an interval between 0 and 250 pg/ml. This immunometric test is based on the “sandwich” technique with a double antibody.

[3] = system: Pre-Pro-ET-1 (PPET-1) gene; assay: Real-Time RT-PCR specific for Pre-Pro-ET-1 (PPET-1) in ECV 304 cells; conditions: ECV304 cells with or without IL-1β 100 U/ml, aminaphtone 2; 4; 6, 6-12-24-36 hrs
Experimental: as §1
b) Real-Time RT-PCR specific for Pre-Pro-ET-1 (PPET-1). The expression of PPET-1 gene was detected at 6-12-24-36 hrs, respectively, in samples: treated with IL-1β (100 U/ml); treated with IL-1β (100 U/ml) additioned with aminaphtone (2; 4; […]); non-stimulated by IL-1β but treated with aminaphtone alone. RT-PCR technique based on TaqMan technology was used (Applied Biosystems, Foster City, Calif.), through a sequence determination system ABI PRISM 7000 (Applied Biosystems). 2-4 μl were collected form each cDNA, diluted 1:5, in a final volume of 25 μl. […] The quantification of the specific mRNA PPET-1 was normalized for the constitutive gene expression glyceraldehyde-3-phosphate-dehydro-genase (GAPDH). Relative quantifications of the gene expression were made possible by the use of the comparative method CT (ΔΔCT). The CT value was defined as the number of PCR cycles required for overcome the fluorescence signal (defined as 10-fold the standard deviation of the basal variation). […]

Cc1cc(OC(=O)c2ccc(N)cc2)c2ccccc2c1O [aminaphtone, 2-hydroxy-3-methyl-1,4-naphthohydroquinone-2-p-aminobenzoate]
ELAM-1 % positive cells ([1]; ECV304 cells + IL-1β 100 U/ml, aminaphtone 2 mcg/ml, IL-1β alone 38.4±3.7, p=n.s.): 36.6±4.5% | ELAM-1 membrane fluorescence, mean channel (MC), mean±standard deviation ([1]; ECV304 cells + IL-1β 100 U/ml, aminaphtone 2 mcg/ml, IL-1β alone 369.6±30.5, p<0.001): 332.2±36.8 | ELAM-1 % positive cells ([1]; ECV304 cells + IL-1β 100 U/ml, aminaphtone 4 mcg/ml, IL-1β alone 38.4±3.7, p<0.001): 28.2±2.9% | ELAM-1 membrane fluorescence, mean channel (MC), mean±standard deviation ([1]; ECV304 cells + IL-1β 100 U/ml, aminaphtone 4 mcg/ml, IL-1β alone 369.6±30.5, p<0.001): 278.4±16.2 | ELAM-1 % positive cells ([1]; ECV304 cells + IL-1β 100 U/ml, aminaphtone 5 mcg/ml, IL-1β alone 38.4±3.7, p<0.001): 27.2±3.7% | ELAM-1 membrane fluorescence, mean channel (MC), mean±standard deviation ([1]; ECV304 cells + IL-1β 100 U/ml, aminaphtone 5 mcg/ml, IL-1β alone 369.6±30.5, p<0.001): 252.6±10.3 | ELAM-1 % positive cells ([1]; ECV304 cells not activated with IL-1β, aminaphtone 4 mcg/ml, medium alone 29.1±3.1, p<0.05): 19.4±1.7% | ELAM-1 membrane fluorescence, mean channel (MC), mean±standard deviation ([1]; ECV304 cells not activated with IL-1β, aminaphtone 4 mcg/ml, medium alone 250±22, p<0.05): 219±8.3 | ET-1 production (EIA-kit) ([2]; ECV304 cells non-activated, culture medium alone, significant at 12 h (6 mcg/ml), 24 h and 36 h (4, 6 mcg/ml)): tends to reduce the ET-1 production | ET-1 production (EIA-kit) ([2]; ECV304 cells stimulated with IL-1β 100 U/ml, 6-12-24-36 hrs, significant at 6 h (4, 6 mcg/ml), 12 h (4, 6 mcg/ml), 36 h (6 mcg/ml)): tends to reduce the ET-1 production | gene transcription of PRE-PRO-ET-1 [3]: trend, already observed at a level of gene transcription of PRE-PRO-ET-1
